Read-outs that look alike come from different tables or passages of the source.
Tested on: Wheat plants (Triticum aestivum cv. Monopol)
Experiment: Growth-promoting effect on wheat plants after foliar treatment (Example 3)
Type: in vivo
Settings: after 18 days; for activity at 7.5 g/ha / activity at 15 g/ha: Triticum aestivum, 432 h
Protocol: Wheat plants (Triticum aestivum cv. Monopol) were grown in soil with ten plants per pot (13 cm diameter) under greenhouse conditions. Plants at the 2nd leaf stage were sprayed with aqueous solutions of formulated compounds: • Compound 2: 5-Methyl-2-trifluoromethyl-furan-3-carboxylic acid (1-methylcarbamoyl-2-phenyl-ethyl)-amide • Compound 3: 1-Methyl-3-trifluoromethyl-1H-pyrazole-4-carboxylic acid (1-methylcarbamoyl-2-phenyl-ethyl)-amide • Compound 4: Methyl-carbamic acid-2-methylcarbamoyl-2-[(1-methyl-3-trifluoromethyl-1H-pyrazole-4-carbonyl)-amino]-ethyl ester • Compound 5: Methyl-carbamic acid-2-methylcarbamoyl-2-[(1-methyl-3-trifluoromethyl-1H-pyrazole-4-carbonyl)-amino]-1-(tetrahydro-pyran-4-yl)-ethyl ester • Compound 6: Methyl-carbamic acid 1,1-dimethyl-2-methylcarbamoyl-2-[(1-methyl-3-trifluoromethyl-1H-pyrazole-4-carbonyl)-amino]-ethyl ester • Compound 7: 1-Methyl-3-trifluoromethyl-1H-pyrazole-4-carboxylic acid (2-hydroxy-3-methoxy-2-methoxymethyl-1-methylcarbamoyl-propyl)-amide • Compound 8: Methyl-carbamic acid 1,1-bis-methoxymethyl-2-methylcarbamoyl-2-[(1-methyl-3-trifluoromethyl-1H-pyrazole-4-carbonyl)-amino]-ethyl ester • Compound 9: Methyl-carbamic acid (E)-1-methyl-1-{methylcarbamoyl-[(1-methyl-3-trifluoromethyl-1H-pyrazole-4-carbonyl)-amino]-methyl}-but-2-enyl ester The compounds were applied at two different dose rates (15 and 7.5 g ai/ha) and the spray volume was 750 I/ha. Six replicate pots with ten plants each were used per treatment. After 18 days plants were harvested and growth parameters were determined. The recorded parameters were fresh weight (FW) and dry weight (DW). Mean values of results, standard deviation (SD) and percentage to control were calculated.

[1] = 7.5 g/ha foliar spray, read-out: Shoot DW % of control
[2] = 7.5 g/ha foliar spray, read-out: Shoot FW % of control
[3] = 15 g/ha foliar spray, read-out: Shoot DW % of control
[4] = 15 g/ha foliar spray, read-out: Shoot FW % of control

| SMILES | Shoot DW (7.5 g/ha foliar spray) | Shoot FW (7.5 g/ha foliar spray) | Shoot DW (15 g/ha foliar spray) | Shoot FW (15 g/ha foliar spray) | activity at 7.5 g/ha [1] | activity at 7.5 g/ha [2] | activity at 15 g/ha [3] | activity at 15 g/ha [4] |
| --- | --- | --- | --- | --- | --- | --- | --- | --- |
| CNC(=O)C(Cc1ccccc1)NC(=O)c1cc(C)oc1C(F)(F)F (stereo not shown) [Compound 2, 5-Methyl-2-trifluoromethyl-furan-3-carboxylic acid (1-methylcarbamoyl-2-phenyl-ethyl)-amide] | 3.8 g | 40.9 g | 3.7 g | 38.7 g | 135% | 134% | 131% | 126% |
| CNC(=O)C(Cc1ccccc1)NC(=O)c1cn(C)nc1C(F)(F)F (stereo not shown) [Compound 3, 1-Methyl-3-trifluoromethyl-1H-pyrazole-4-carboxylic acid (1-methylcarbamoyl-2-phenyl-ethyl)-amide] | 3.8 g | 39.4 g | 3.8 g | 39.1 g | 135% | 129% | 135% | 128% |
| CNC(=O)OCC(NC(=O)c1cn(C)nc1C(F)(F)F)C(=O)NC (stereo not shown) [Compound 4, Methyl-carbamic acid-2-methylcarbamoyl-2-[(1-methyl-3-trifluoromethyl-1H-pyrazole-4-carbonyl)-amino]-ethyl ester] | 3.7 g | 37.7 g | 3.8 g | 40.1 g | 131% | 123% | 137% | 131% |
| CNC(=O)OC(C1CCOCC1)C(NC(=O)c1cn(C)nc1C(F)(F)F)C(=O)NC (stereo not shown) [Compound 5, Methyl-carbamic acid 2-methylcarbamoyl-2-[(1-methyl-3-trifluoromethyl-1H-pyrazole-4-carbonyl)-amino]-1-(tetrahydro-pyran-4-yl)-ethyl ester] | 3.8 g | 41.2 g | 3.7 g | 39.6 g | 135% | 135% | 133% | 129% |
| CNC(=O)OC(C)(C)C(NC(=O)c1cn(C)nc1C(F)(F)F)C(=O)NC (stereo not shown) [Compound 6, Methyl-carbamic acid 1,1-dimethyl-2-methylcarbamoyl-2-[(1-methyl-3-trifluoromethyl-1H-pyrazole-4-carbonyl)-amino]-ethyl ester] | 3.7 g | 39.2 g | 3.6 g | 38.2 g | 132% | 128% | 130% | 125% |
| CNC(=O)C(NC(=O)c1cn(C)nc1C(F)(F)F)C(O)(COC)COC (stereo not shown) [Compound 7, 1-Methyl-3-trifluoromethyl-1H-pyrazole-4-carboxylic acid (2-hydroxy-3-methoxy-2-methoxymethyl-1-methylcarbamoyl-propyl)-amide] | 3.7 g | 38.7 g | 3.7 g | 40.2 g | 131% | 126% | 133% | 131% |
| CNC(=O)OC(COC)(COC)C(NC(=O)c1cn(C)nc1C(F)(F)F)C(=O)NC (stereo not shown) [Compound 8, Methyl-carbamic acid 1,1-bis-methoxymethyl-2-methylcarbamoyl-2-[(1-methyl-3-trifluoromethyl-1H-pyrazole-4-carbonyl)-amino]-ethyl ester] | 3.9 g | 39.6 g | 3.7 g | 39.4 g | 138% | 129% | 131% | 121% |
| C/C=C/C(C)(OC(=O)NC)C(NC(=O)c1cn(C)nc1C(F)(F)F)C(=O)NC (stereo not shown) [Compound 9, Methyl-carbamic acid (E)-1-methyl-1-{methylcarbamoyl-[(1-methyl-3-trifluoromethyl-1H-pyrazole-4-carbonyl)-amino]-methyl}-but-2-enyl ester] | 3.6 g | 38.8 g | 3.8 g | 39.4 g | 129% | 127% | 135% | 129% |

Reference: patent US20110209253A1, “Method for Improving Plant Health” (BASF SE, priority 2008, published 2011)
